We go through 13 molecules from PubChem BioAssay (NCI).

Assay in all cases: NCI-60 cell line screen, 48 h
The test system of assay [1] is HT29 colon.
Assay [2] deals with 786-0 renal.
Assay [3] concerns CCRF-CEM leukemia.
In assay [4] the test system is HCT-116 colon.
Assay [5] relates to COLO 205 colon.
Assay [6] relates to UO-31 renal.
The test system of assay [7] is SF-539 CNS.
Assay [8] has as its system OVCAR-4 ovarian.
Assay [9] concerns SR leukemia.
The test system of assay [10] is OVCAR-5 ovarian.
The subject of assay [11] is SF-295 CNS.
For assay [12], the system named is SF-268 CNS.
Assay [13] relates to UACC-257 melanoma.
Assay [14] concerns TK-10 renal.
Assay [15] relates to LOX IMVI melanoma.
For assay [16], the system named is HOP-92 NSCLC.
Assay [17] concerns BT-549 breast.
Assay [18] deals with MCF7 breast.
The subject of assay [19] is NCI-H226 lung.

Molecules are shown by their SMILES.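 Five concentrations, 48 hours, 96-well plates. At the TGI there is no net growth.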

Consider `[N-]=[N+]=NC1(Cc2ccccc2)C(=O)Nc2ccccc2C1=O` (centres undefined), for which the TGI in assay [1], in [2], in [3], in assay [4], in assay [5] and in assay [6] was > 100 µM in each case. The TGI in assay [7], in [8], in assay [9], in assay [10], in [11] and in assay [12] was > 100 µM throughout. For the same molecule, the TGI in [13], in assay [14], in [15] and in [16] was > 100 µM in each case.

On to `Cc1cc2c(cc1Cl)SC(NNC(=O)c1ccccc1)=NS2(=O)=O`, for which the TGI in [1], in [2], in [3], in assay [4], in [17] and in assay [5] was > 10 µM each time. Further, the TGI was > 10 µM in assay [7]; 5.76 µM in assay [18]; > 10 µM in assay [8]; > 10 µM in [10]; > 10 µM in assay [11]; > 10 µM in assay [12]. Also, the TGI in assay [13], in [14], in [19] and in assay [15] was > 10 µM in each case.

As for `Cc1cc(C(O)CCCc2ccccc2)cc(C)c1O` (centres undefined), the TGI in [2] was > 100 µM; in [3], > 100 µM; in assay [5] it was > 100 µM; in assay [6] it was 60.4 µM; in assay [7], > 100 µM; in assay [10], > 100 µM. Also, the TGI in assay [11] was 93.9 µM; in assay [12], > 100 µM; in [13], 95.6 µM; in assay [14] it was > 100 µM; in assay [19] it was > 100 µM; in assay [15], > 100 µM.

On to `CC(=O)c1ccc(NC(=O)C(=O)CC(=O)c2sc(-n3nc(-c4ccccc4)cc3-c3ccccc3)nc2C)cc1`, for which the TGI in [1], in [2], in [3], in assay [4], in [5] and in assay [6] was > 100 µM throughout. The TGI in assay [7], in [8], in assay [9], in assay [10], in assay [11] and in [12] was > 100 µM in each case. Further, the TGI in assay [13], in assay [14], in assay [19] and in [15] was > 100 µM each time.

In the case of `Cc1cc(N(CCC#N)CCC#N)ccc1/C(Sc1ccccc1)=C(\NC(=O)/C=C/c1ccccc1)C(=O)Sc1ccccc1`, the TGI in [1] is 11.8 µM; in assay [2], 8.8 µM; in assay [3] it was 15.3 µM; in [4], 9.79 µM; in [5], 7.71 µM; in assay [6] it was 6.15 µM. For the same molecule, the TGI is 3.44 µM in [7]; 18.6 µM in [8]; > 31.5 µM in assay [9]; 16.3 µM in assay [10]; 14.7 µM in [11]; 3.81 µM in [12]. The TGI in [13] turned out to be 25.9 µM; in assay [14] it was 25.2 µM; in assay [19], 10.7 µM; in [15], 2.52 µM; in assay [16], 15 µM.

For `Cc1c(N)c(C#N)c2n(C)c3ncccc3n2c1=O`, the TGI in assay [1], in assay [2], in assay [3], in [4], in [5] and in assay [6] was > 100 µM each time. The TGI in [7], in assay [8], in assay [9], in [11], in [12] and in [13] was > 100 µM in each case. The TGI in [14], in assay [19], in assay [15] and in assay [16] was > 100 µM in each case.

In the case of `Cc1ccc(NC(=O)CC(=O)N2N=C(N(c3ccccc3)c3ccccc3)CC2c2ccccc2)cc1` (centres undefined), the TGI in assay [1], in assay [2], in [3], in assay [4], in [17] and in [5] was > 100 µM in each case. For the same molecule, the TGI in [6], in assay [7], in assay [18], in [8], in assay [10] and in assay [11] was > 100 µM in each case. Moreover, the TGI in [12], in assay [13], in [14], in assay [19] and in [16] was > 100 µM throughout.

As to `CCCCN(CCCC)CC(C(=O)Nc1ccc([N+](=O)[O-])cc1[N+](=O)[O-])/C(C)=N\NC(=O)c1ccncc1` (centres undefined), the TGI in assay [2], in [3], in assay [5], in [6], in assay [7] and in assay [8] was > 100 µM each time. Besides, the TGI in [10], in assay [11], in [12], in assay [13], in assay [14] and in assay [15] was > 100 µM in each case. Moreover, the TGI in [16] is > 100 µM.

Regarding `c1ccc(C2(c3cc4ccccc4[nH]3)OCCO2)nc1`, the TGI in assay [1], in assay [2], in assay [3], in [4], in assay [17] and in assay [5] was > 100 µM throughout. The TGI in assay [6], in assay [7], in assay [18], in assay [8], in assay [10] and in assay [11] was > 100 µM each time. For the same molecule, the TGI in assay [12], in assay [13], in assay [14], in assay [19], in assay [15] and in assay [16] was > 100 µM in each case.

With `CCN(CC)CC(C(C)=O)C(c1ccccc1)c1c(O)c2ccccc2oc1=O` (centres undefined), the TGI in assay [1], in assay [2], in assay [3], in assay [4], in assay [5] and in [6] was > 100 µM throughout. In addition, the TGI in [7], in assay [8], in [9], in assay [10], in assay [11] and in assay [12] was > 100 µM each time. The TGI in [13], in assay [14], in assay [19] and in assay [15] was > 100 µM each time.

In the case of `CCCN(CCCC(NC(C)=O)C(=O)NCc1ccccc1)C(=O)N(C)N=O` (centres undefined), the TGI in assay [1], in [2], in assay [3], in assay [4], in assay [5] and in assay [7] was > 100 µM each time. Besides, the TGI in assay [8], in assay [10], in assay [11], in assay [12], in assay [13] and in assay [14] was > 100 µM each time. Moreover, the TGI in [19], in assay [15] and in assay [16] was > 100 µM throughout.

With `CC1=CP(=O)(OC(C)C)C=C(C)C1=C(Cl)Cl` (centres undefined), the TGI in [1] is > 100 µM; in assay [2], > 100 µM; in assay [3] it was > 100 µM; in assay [4], 70.5 µM; in assay [5], 35 µM; in assay [6] it was 27.2 µM. In addition, the TGI in assay [7], in assay [8], in assay [9], in [10], in assay [11] and in [12] was > 100 µM throughout. The TGI in assay [13] is > 100 µM; in [14], > 100 µM; in [19], 87.2 µM; in assay [15] it was > 100 µM; in assay [16], 54.6 µM.

For the molecule `CC12CCC(=O)N1[C@@H](c1ccccc1)[C@@H](c1ccccc1)O2` (some centres undefined), the TGI in [1], in assay [2], in [3], in [4], in [5] and in assay [6] was > 100 µM throughout. Also, the TGI in [7], in assay [8], in [10], in [11], in [12] and in assay [13] was > 100 µM throughout. Moreover, the TGI in assay [19], in assay [15] and in assay [16] was > 100 µM each time.
